Key:
OTR = target: T1, OTR (Homo sapiens, UniProt P30559); assay: IP1 signalling on OTR HEK cells; format: cell-based
T1 construct: expressed in transfected cells; host or cells: HEK cells

BALB/C mice = assay: Social preference test, BALB/C mouse model of autism spectrum disorders; format: in vivo; settings: 5 mg/kg IP
Source text: BALB/C mice have autistic-like behaviours (including reduced interest in social stimuli) compared to standard C57BL/6 mice. In a social preference test, BALB/C mice show no preference for interacting with a social stimulus (a novel mouse) over an object stimulus (a novel object), whereas C57BL/6 mice show a robust preference.

rats = assay: In vivo toxicity/adverse events; set-up: species or system rat
Method: However, the rats were not ataxic or comatose, they were simply in a relaxed quiescent state. […] Effects on body temperature and other behaviours are not blocked by pre-treatment with the vasopressin V1A receptor antagonist SR49059 (10 mg/kg). […] The data in these two studies was gathered with DataSciences International biotelemetry system.

[1] = In vitro plasma stability assay; format: in vitro ADME; settings: human, incubated at body temperature
H2 = target: T2, H2 (Homo sapiens, UniProt P25021); assay: PDSP orthosteric binding screen
T2 construct: Psychoactive Drug Screening Program (PDSP)
Source text: (§1) Comprehensive screening of affinity for the orthosteric binding sites for numerous receptors from the Psychoactive Drug Screening Program (PDSP) have failed as yet to identify a target, despite the powerful OT-like behavioural effects of the compound evident in vivo and the clear activation of brain OT systems evident from our Fos data.

Alpha2C = target: T3, Alpha2C (Homo sapiens, UniProt P18825); assay: PDSP orthosteric binding screen
T3 construct: Psychoactive Drug Screening Program (PDSP)
Source text: as §1

NET = target: T4, NET (Homo sapiens, UniProt P23975); assay: PDSP orthosteric binding screen
T4 construct: Psychoactive Drug Screening Program (PDSP)
Source text: as §1

Sigma 2 = assay: PDSP orthosteric binding screen
Source text: as §1

D1 = target: T5, D1 (Homo sapiens, UniProt P21728); assay: PDSP orthosteric binding screen
T5 construct: Psychoactive Drug Screening Program (PDSP)
Source text: as §1

5-HT1A = target: T6, 5-HT1A (Homo sapiens, UniProt P08908); assay: PDSP orthosteric binding screen
T6 construct: Psychoactive Drug Screening Program (PDSP)
Source text: as §1

DAT = target: T7, DAT (Homo sapiens, UniProt Q01959); assay: PDSP orthosteric binding screen
T7 construct: Psychoactive Drug Screening Program (PDSP)
Source text: as §1

5-ht5a = target: T8, 5-ht5a (Homo sapiens, UniProt P47898); assay: PDSP orthosteric binding screen
T8 construct: Psychoactive Drug Screening Program (PDSP)
Source text: as §1

Alpha2B = target: T9, Alpha2B (Homo sapiens, UniProt P18089); assay: PDSP orthosteric binding screen
T9 construct: Psychoactive Drug Screening Program (PDSP)
Source text: as §1

Sigma 1 = assay: PDSP orthosteric binding screen
Source text: as §1

KOR = target: T10, KOR (Homo sapiens, UniProt P41145); assay: PDSP orthosteric binding screen
T10 construct: Psychoactive Drug Screening Program (PDSP)
Source text: as §1

5-HT3 = target: T11, 5-HT3 (Homo sapiens, UniProt P46098); assay: PDSP orthosteric binding screen
T11 construct: Psychoactive Drug Screening Program (PDSP)
Source text: as §1

5-HT2C = target: T12, 5-HT2C (Homo sapiens, UniProt P28335); assay: PDSP orthosteric binding screen
T12 construct: Psychoactive Drug Screening Program (PDSP)
Source text: as §1

5-ht1e = target: T13, 5-ht1e (Homo sapiens, UniProt P28566); assay: PDSP orthosteric binding screen
T13 construct: Psychoactive Drug Screening Program (PDSP)
Source text: as §1

5-HT2A = target: T14, 5-HT2A (Homo sapiens, UniProt P28223); assay: PDSP orthosteric binding screen
T14 construct: Psychoactive Drug Screening Program (PDSP)
Source text: as §1

Beta3 = target: T15, Beta3 (Homo sapiens, UniProt P13945); assay: PDSP orthosteric binding screen
T15 construct: Psychoactive Drug Screening Program (PDSP)
Source text: as §1

Beta2 = target: T16, Beta2 (Homo sapiens, UniProt P07550); assay: PDSP orthosteric binding screen
T16 construct: Psychoactive Drug Screening Program (PDSP)
Source text: as §1

BZP Rat Brain Site = assay: PDSP orthosteric binding screen
Source text: as §1

5-HT2B = target: T17, 5-HT2B (Homo sapiens, UniProt P41595); assay: PDSP orthosteric binding screen
T17 construct: Psychoactive Drug Screening Program (PDSP)
Source text: as §1

M4 = target: T18, M4 (Homo sapiens, UniProt P08173); assay: PDSP orthosteric binding screen
T18 construct: Psychoactive Drug Screening Program (PDSP)
Source text: as §1

D5 = target: T19, D5 (Homo sapiens, UniProt P21918); assay: PDSP orthosteric binding screen
T19 construct: Psychoactive Drug Screening Program (PDSP)
Source text: as §1

5-HT7 = target: T20, 5-HT7 (Homo sapiens, UniProt P34969); assay: PDSP orthosteric binding screen
T20 construct: Psychoactive Drug Screening Program (PDSP)
Source text: as §1

H3 = target: T21, H3 (Homo sapiens, UniProt Q9Y5N1); assay: PDSP orthosteric binding screen
T21 construct: Psychoactive Drug Screening Program (PDSP)
Source text: as §1

Alpha2A = target: T22, Alpha2A (Homo sapiens, UniProt P08913); assay: PDSP orthosteric binding screen
T22 construct: Psychoactive Drug Screening Program (PDSP)
Source text: as §1

GABAA = assay: PDSP orthosteric binding screen
Source text: as §1

5-HT1B = target: T23, 5-HT1B (Homo sapiens, UniProt P28222); assay: PDSP orthosteric binding screen
T23 construct: Psychoactive Drug Screening Program (PDSP)
Source text: as §1

H1 = target: T24, H1 (Homo sapiens, UniProt P35367); assay: PDSP orthosteric binding screen
T24 construct: Psychoactive Drug Screening Program (PDSP)
Source text: as §1

5-HT1D = target: T25, 5-HT1D (Homo sapiens, UniProt P28221); assay: PDSP orthosteric binding screen
T25 construct: Psychoactive Drug Screening Program (PDSP)
Source text: as §1

Beta1 = target: T26, Beta1 (Homo sapiens, UniProt P08588); assay: PDSP orthosteric binding screen
T26 construct: Psychoactive Drug Screening Program (PDSP)
Source text: as §1

M2 = target: T27, M2 (Homo sapiens, UniProt P08172); assay: PDSP orthosteric binding screen
T27 construct: Psychoactive Drug Screening Program (PDSP)
Source text: as §1

D3 = target: T28, D3 (Homo sapiens, UniProt P35462); assay: PDSP orthosteric binding screen
T28 construct: Psychoactive Drug Screening Program (PDSP)
Source text: as §1

MOR = target: T29, MOR (Homo sapiens, UniProt P35372); assay: PDSP orthosteric binding screen
T29 construct: Psychoactive Drug Screening Program (PDSP)
Source text: as §1

M3 = target: T30, M3 (Homo sapiens, UniProt P20309); assay: PDSP orthosteric binding screen
T30 construct: Psychoactive Drug Screening Program (PDSP)
Source text: as §1

SERT = target: T31, SERT (Homo sapiens, UniProt P31645); assay: PDSP orthosteric binding screen
T31 construct: Psychoactive Drug Screening Program (PDSP)
Source text: as §1

D2 = target: T32, D2 (Homo sapiens, UniProt P14416); assay: PDSP orthosteric binding screen
T32 construct: Psychoactive Drug Screening Program (PDSP)
Source text: as §1

DOR = target: T33, DOR (Homo sapiens, UniProt P41143); assay: PDSP orthosteric binding screen
T33 construct: Psychoactive Drug Screening Program (PDSP)
Source text: as §1

T16 sequence (P07550 whole entry): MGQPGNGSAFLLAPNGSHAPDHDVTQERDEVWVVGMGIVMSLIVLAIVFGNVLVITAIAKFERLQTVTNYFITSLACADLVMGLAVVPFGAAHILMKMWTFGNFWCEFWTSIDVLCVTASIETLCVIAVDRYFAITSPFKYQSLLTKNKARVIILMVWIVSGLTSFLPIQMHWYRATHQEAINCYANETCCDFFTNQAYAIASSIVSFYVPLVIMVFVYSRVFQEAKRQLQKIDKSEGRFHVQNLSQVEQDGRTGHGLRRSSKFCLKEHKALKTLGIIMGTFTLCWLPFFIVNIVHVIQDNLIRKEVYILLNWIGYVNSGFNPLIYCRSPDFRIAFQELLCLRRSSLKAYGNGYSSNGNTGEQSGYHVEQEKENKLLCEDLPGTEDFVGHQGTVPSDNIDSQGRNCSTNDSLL
T13 sequence (P28566 whole entry, species assumed): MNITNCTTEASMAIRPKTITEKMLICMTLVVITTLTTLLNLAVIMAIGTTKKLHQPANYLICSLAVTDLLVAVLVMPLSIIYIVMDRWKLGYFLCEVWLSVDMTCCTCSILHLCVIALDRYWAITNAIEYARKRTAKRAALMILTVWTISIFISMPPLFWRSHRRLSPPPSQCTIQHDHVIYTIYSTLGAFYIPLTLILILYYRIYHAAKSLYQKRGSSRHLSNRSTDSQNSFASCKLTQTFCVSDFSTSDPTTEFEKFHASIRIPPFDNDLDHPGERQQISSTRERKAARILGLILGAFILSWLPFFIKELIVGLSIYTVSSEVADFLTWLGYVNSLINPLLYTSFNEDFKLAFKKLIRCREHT
T21 sequence (Q9Y5N1 whole entry): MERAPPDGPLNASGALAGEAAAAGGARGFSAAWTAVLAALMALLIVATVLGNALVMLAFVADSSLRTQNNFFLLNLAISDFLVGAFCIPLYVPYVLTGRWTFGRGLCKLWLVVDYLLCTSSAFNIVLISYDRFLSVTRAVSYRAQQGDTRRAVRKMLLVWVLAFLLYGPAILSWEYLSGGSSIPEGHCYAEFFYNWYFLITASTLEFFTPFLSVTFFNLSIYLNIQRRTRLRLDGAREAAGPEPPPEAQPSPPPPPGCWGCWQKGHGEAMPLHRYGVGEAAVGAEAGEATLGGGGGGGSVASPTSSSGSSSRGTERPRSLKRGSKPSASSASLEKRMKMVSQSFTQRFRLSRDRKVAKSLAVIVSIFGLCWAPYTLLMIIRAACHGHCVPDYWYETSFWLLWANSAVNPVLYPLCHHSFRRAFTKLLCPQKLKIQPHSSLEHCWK
T8 sequence (P47898 whole entry, species assumed): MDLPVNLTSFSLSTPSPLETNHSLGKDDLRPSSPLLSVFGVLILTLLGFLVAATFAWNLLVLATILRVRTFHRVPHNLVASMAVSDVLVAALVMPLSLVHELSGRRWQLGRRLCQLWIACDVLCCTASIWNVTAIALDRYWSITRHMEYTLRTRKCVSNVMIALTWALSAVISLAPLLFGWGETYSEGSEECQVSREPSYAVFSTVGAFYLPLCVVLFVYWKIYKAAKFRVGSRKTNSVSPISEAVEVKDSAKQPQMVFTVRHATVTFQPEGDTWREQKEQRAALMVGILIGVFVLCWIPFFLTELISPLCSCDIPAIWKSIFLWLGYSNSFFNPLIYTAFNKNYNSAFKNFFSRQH
T10 sequence (P41145 whole entry): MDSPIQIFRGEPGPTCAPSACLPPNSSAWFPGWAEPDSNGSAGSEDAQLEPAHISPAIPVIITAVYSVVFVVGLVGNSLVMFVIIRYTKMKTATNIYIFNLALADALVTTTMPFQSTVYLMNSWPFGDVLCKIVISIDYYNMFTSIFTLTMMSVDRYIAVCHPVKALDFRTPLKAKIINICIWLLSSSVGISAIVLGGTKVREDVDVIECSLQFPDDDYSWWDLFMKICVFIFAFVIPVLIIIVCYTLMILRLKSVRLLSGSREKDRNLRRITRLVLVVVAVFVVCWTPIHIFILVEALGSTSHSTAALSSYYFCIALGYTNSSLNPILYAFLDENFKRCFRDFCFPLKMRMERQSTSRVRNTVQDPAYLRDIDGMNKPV
T12 sequence (P28335 33-458, species assumed): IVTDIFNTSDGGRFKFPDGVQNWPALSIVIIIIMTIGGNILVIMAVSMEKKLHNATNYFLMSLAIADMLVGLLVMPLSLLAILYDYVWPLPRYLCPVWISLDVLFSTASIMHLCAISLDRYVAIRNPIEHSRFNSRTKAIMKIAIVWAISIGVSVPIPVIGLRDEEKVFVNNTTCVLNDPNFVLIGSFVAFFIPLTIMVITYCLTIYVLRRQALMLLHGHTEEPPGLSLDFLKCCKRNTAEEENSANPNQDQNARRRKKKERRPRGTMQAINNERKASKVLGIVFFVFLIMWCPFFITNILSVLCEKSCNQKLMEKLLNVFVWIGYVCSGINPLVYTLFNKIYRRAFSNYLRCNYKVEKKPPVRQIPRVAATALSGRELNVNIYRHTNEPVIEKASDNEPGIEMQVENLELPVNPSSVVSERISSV
T29 sequence (P35372 whole entry): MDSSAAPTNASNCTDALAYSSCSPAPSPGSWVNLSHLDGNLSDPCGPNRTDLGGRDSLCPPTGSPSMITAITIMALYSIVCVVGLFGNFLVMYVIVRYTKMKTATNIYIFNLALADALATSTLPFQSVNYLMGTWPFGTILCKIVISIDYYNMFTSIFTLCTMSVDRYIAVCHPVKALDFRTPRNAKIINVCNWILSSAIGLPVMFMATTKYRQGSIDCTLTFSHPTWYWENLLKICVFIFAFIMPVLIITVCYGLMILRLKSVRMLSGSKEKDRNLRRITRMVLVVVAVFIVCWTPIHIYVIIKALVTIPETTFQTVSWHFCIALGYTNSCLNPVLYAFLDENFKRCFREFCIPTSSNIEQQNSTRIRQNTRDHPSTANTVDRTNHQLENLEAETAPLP
T20 sequence (P34969 whole entry, species assumed): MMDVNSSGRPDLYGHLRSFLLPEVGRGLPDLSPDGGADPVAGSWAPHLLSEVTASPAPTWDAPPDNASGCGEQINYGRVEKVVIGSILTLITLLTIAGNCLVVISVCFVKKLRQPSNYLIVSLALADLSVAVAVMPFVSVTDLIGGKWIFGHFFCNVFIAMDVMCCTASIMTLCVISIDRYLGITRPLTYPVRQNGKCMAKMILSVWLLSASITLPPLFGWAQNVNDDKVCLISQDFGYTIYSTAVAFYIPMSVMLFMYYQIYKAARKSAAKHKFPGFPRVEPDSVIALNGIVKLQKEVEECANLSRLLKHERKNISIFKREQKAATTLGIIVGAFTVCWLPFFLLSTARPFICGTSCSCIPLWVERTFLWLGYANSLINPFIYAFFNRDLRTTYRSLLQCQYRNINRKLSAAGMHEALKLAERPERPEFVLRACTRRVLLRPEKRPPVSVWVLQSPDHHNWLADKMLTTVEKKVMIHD
T15 sequence (P13945 whole entry): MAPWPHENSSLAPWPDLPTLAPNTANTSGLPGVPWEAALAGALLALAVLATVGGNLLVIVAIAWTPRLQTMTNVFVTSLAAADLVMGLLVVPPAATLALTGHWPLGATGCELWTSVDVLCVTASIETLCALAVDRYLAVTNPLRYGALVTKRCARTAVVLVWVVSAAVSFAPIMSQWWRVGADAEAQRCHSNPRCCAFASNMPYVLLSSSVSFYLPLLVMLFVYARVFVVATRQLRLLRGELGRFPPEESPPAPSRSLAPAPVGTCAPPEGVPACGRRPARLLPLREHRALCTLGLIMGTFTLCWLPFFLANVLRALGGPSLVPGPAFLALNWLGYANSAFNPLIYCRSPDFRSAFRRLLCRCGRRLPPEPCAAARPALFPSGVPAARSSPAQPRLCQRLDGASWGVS
T25 sequence (P28221 whole entry, species assumed): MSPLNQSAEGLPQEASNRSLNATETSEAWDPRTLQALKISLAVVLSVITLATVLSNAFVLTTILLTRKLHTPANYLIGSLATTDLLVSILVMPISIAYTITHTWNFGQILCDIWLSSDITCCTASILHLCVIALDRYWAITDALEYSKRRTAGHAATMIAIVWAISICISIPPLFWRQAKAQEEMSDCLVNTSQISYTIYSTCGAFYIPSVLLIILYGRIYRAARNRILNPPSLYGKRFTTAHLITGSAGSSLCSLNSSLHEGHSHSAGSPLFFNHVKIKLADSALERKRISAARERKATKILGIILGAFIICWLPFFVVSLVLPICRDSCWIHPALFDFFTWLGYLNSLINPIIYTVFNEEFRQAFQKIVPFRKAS
T2 sequence (P25021 whole entry): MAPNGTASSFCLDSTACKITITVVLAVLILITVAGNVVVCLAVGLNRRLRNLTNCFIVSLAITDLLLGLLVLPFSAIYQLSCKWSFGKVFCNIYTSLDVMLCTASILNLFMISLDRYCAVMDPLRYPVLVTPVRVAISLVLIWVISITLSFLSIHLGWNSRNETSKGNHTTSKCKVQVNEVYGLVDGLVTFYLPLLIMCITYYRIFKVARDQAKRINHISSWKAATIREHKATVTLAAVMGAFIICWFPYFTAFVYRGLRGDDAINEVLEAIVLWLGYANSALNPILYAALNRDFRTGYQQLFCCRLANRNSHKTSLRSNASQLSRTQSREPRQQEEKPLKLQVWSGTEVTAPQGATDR
T28 sequence (P35462 whole entry): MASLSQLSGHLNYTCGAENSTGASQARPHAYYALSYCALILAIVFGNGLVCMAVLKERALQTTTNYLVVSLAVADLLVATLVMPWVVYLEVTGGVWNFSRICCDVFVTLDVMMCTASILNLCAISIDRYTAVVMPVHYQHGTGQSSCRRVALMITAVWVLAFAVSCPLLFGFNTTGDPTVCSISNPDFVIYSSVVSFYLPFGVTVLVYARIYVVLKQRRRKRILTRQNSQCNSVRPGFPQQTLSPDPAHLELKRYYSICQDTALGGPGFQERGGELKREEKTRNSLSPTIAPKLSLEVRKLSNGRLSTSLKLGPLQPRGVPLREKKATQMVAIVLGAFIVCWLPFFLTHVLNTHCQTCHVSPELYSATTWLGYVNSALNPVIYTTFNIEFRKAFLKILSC

Question: With Cl.Cn1ncc2c1Nc1ccccc1NC2 [SOC-1] as the compound, how does the “agonist, antagonist or positive allosteric modulator activity at OTR” value (OTR) read?
Answer: not an agonist or antagonist at OTRs, nor a positive allosteric modulator of the OTR

Question: And the “time spent investigating the object stimulus (a novel object)” value (BALB/C mice)?
Answer: significantly increased the amount of time the BALB/C mice spent investigating the object stimulus

Question: What about the “time spent investigating the social stimulus (a novel mouse)” value (BALB/C mice) of the same compound?
Answer: significantly increased the amount of time BALB/C mice spent investigating the social stimulus

Question: What about the locomotor activity (rats; 10-20 mg/kg IP) of the same compound?
Answer: some mild inhibition of locomotor activity

Question: What about the “tolerability of repeated dosing (body weight, coat condition)” value (rats; repeated dosing) of the same compound?
Answer: without any apparent adverse effects

Question: What about the half-life at 500 nM [1] of the same compound?
Answer: > 6 h

Question: What about the “affinity for H2” value (H2) of the same compound?
Answer: no notable affinity

Question: And the “affinity for Alpha2C” value (Alpha2C)?
Answer: no notable affinity

Question: What about the “affinity for NET” value (NET) of the same compound?
Answer: no notable affinity

Question: What about the “affinity for Sigma 2” value (Sigma 2) of the same compound?
Answer: no notable affinity

Question: What about the “affinity for D1” value (D1) of the same compound?
Answer: no notable affinity

Question: What about the “affinity for 5-HT1A” value (5-HT1A) of the same compound?
Answer: no notable affinity

Question: And the “affinity for DAT” value (DAT)?
Answer: no notable affinity

Question: And the “affinity for 5-ht5a” value (5-ht5a)?
Answer: no notable affinity

Question: What about the “affinity for Alpha2B” value (Alpha2B) of the same compound?
Answer: no notable affinity

Question: What about the “affinity for Sigma 1” value (Sigma 1) of the same compound?
Answer: no notable affinity

Question: And the “affinity for KOR” value (KOR)?
Answer: no notable affinity

Question: And the “affinity for 5-HT3” value (5-HT3)?
Answer: no notable affinity

Question: What about the “affinity for 5-HT2C” value (5-HT2C) of the same compound?
Answer: no notable affinity

Question: And the “affinity for 5-ht1e” value (5-ht1e)?
Answer: no notable affinity

Question: And the “affinity for 5-HT2A” value (5-HT2A)?
Answer: no notable affinity

Question: What about the “affinity for Beta3” value (Beta3) of the same compound?
Answer: no notable affinity

Question: And the “affinity for Beta2” value (Beta2)?
Answer: no notable affinity

Question: And the “affinity for BZP Rat Brain Site” value (BZP Rat Brain Site)?
Answer: no notable affinity

Question: What about the “affinity for 5-HT2B” value (5-HT2B) of the same compound?
Answer: no notable affinity

Question: What about the “affinity for M4” value (M4) of the same compound?
Answer: no notable affinity

Question: What about the “affinity for D5” value (D5) of the same compound?
Answer: no notable affinity

Question: And the “affinity for 5-HT7” value (5-HT7)?
Answer: no notable affinity

Question: What about the “affinity for H3” value (H3) of the same compound?
Answer: no notable affinity

Question: And the “affinity for Alpha2A” value (Alpha2A)?
Answer: no notable affinity

Question: What about the “affinity for GABAA” value (GABAA) of the same compound?
Answer: no notable affinity

Question: What about the “affinity for 5-HT1B” value (5-HT1B) of the same compound?
Answer: no notable affinity

Question: And the “affinity for H1” value (H1)?
Answer: no notable affinity

Question: And the “affinity for 5-HT1D” value (5-HT1D)?
Answer: no notable affinity

Question: And the “affinity for Beta1” value (Beta1)?
Answer: no notable affinity

Question: And the “affinity for M2” value (M2)?
Answer: no notable affinity

Question: What about the “affinity for D3” value (D3) of the same compound?
Answer: no notable affinity

Question: What about the “affinity for MOR” value (MOR) of the same compound?
Answer: no notable affinity

Question: What about the “affinity for M3” value (M3) of the same compound?
Answer: no notable affinity

Question: And the “affinity for SERT” value (SERT)?
Answer: no notable affinity

Question: And the “affinity for D2” value (D2)?
Answer: no notable affinity

Question: What about the “affinity for DOR” value (DOR) of the same compound?
Answer: no notable affinity

— patent publication US11890287B2, “Therapeutic compounds and compositions for treating social disorders and substance use disorders” (Kinoxis Therapeutics Pty Ltd, priority 2015, dated 2024)
